# Assay results published in patent publication US11254671B2, “Chemical compounds” (GLAXOSMITHKLINE INTELLECTUAL PROPERTY DEVELOPMENT LIMITED, priority 2017, dated 2022).
# System: phosphorylated Akt at serine 473 (pAKTs473) in primary human lung fibroblasts
# Test: Highthroughput phosphorylated Akt (Ser473) in vitro immunoassay (MSD)
# Type: cell-based
# Conditions: Fibroblast, 1 h compound, PDGF-BB 10 ng/ml for 10 min, mean of multiple experiments, read-out: mean pIC50, inhibition of pAkt (Ser473) (converted)
# Text: Highthroughput Phosphorylated Akt (Ser473) In Vitro Immunoassay
# Immunoassay to measure effect of test compounds on phosphorylated Akt at serine 473 (pAKTs473) in primary human lung fibroblasts (Lonza Group Ltd, Basel, Switzerland, Catalogue No. CC-2512) using the MesoScale Discovery (MSD) platform to quantify levels of total Akt and pAKTser473.
# Human lung fibroblasts were routinely maintained in fibroblast basal medium supplemented with 2% foetal bovine serum (FBS), 0.1% human fibroblast growth factor (FGF)-B, 0.1% insulin, 0.1% GA-100 (Lonza Group Ltd, Basel, Switzerland, Catalogue No. CC-3132) at 37° C. in 5% CO2 according to the manufacturer's protocol.
# For the assay, cells were harvested using Trypsin/EDTA, (Lonza Group Ltd, Basel, Switzerland, Catalogue No. CC-5012), at working concentration of 0.025%, resuspended to give 3×10^5 cells/ml and 50 ul/well seeded into 384-well plates (Greiner Group, Kremsmunster, Austria, Catalogue No. 781091) in media containing 0.4% FBS and incubated o/n at 37° C. in 5% CO2.
# Test compounds were dissolved in 100% DMSO to give 10 mM stock solutions and serially diluted to generate an 11-point concentration response curve. Compound were further diluted by […] into 384-well V-bottom polypropylene plates (Greiner Group, Kremsmunster, Austria, Catalogue No. 781280) with media containing 0.4% FBS to give 50 μM top compound concentration in 0.5% DMSO.
# Compounds were transferred to 384-well plates contacting cells (0.1% DMSO final) and incubated for 1 h at 37° C. in 5% CO2, prior to stimulation with platelet-derived growth factor (PDGF)-BB (R&D Systems, Catalogue No. 220-BB) at 10 ng/ml (final) for 10 min at RT. Cell assay plates were incubated on ice and treated with lysis buffer (Cell Signalling Technology, Catalogue No. 9806) containing protease and phosphatase inhibitors (Thermo Scientific, Catalogue No. 78444) followed by shaking for 30 min at 4° C.
# MSD plates (MSD, MA6000 384-well GAR plate, Catalogue No. L21RA-2) were blocked with blocking buffer containing TBS (MSD, Cat. No. R61TX-1) with 0.5% bovine serum albumin (BSA) (Sigma Aldrich, Cat. No. A7906), 0.1% tween-20 (Sigma Aldrich, Catalogue No. P2287) and coated with rabbit-anti-human pAkt (s473) ab (Cell Signalling Technology, Catalogue No. CST #4060) at RT with shaking, followed by washing (×3) with 1×TBS wash reagent containing 0.1% Tween-20. Cell lysates (30 ul) were added and MSD plates centrifuged at 1000 rpm at 4° C. o/n.
# Plates were washed with 1×TBS wash buffer (×3), prior to addition of mouse-anti-human-total Akt ab (1 mg/ml) (Upstate (Milipore), Catalogue No. 05-591) in blocking buffer and shaken at RT for 1 h. After washing with 1×TBS wash buffer (×3), plates were incubated with goat-anti-mouse SULFO-TAG detection ab (MSD, Catalogue No. R32AC-1) (1:500 in blocking buffer) for 1 h at RT. Plates were washed with 1×TBS (×3) and read buffer (2×) (MSD, Catalogue No. R92TC-1) added before detecting electrochemiluminescence (MSD Sector Imager 6000).
# Data analysis was performed by determining % inhibition values for test compounds relative to the minimum (+PDGF-BB stimulation) and maximum responses (no PDGF-BB stimulation) with non-linear regression analysis to determine IC50 values for test compounds.
row,SMILES,IC50 [nM]
1,"CC[C@H]1COCCN1c1cc(C2(S(=O)(=O)N(C)C)CCOCC2)cc(-c2ccc3[nH]c(CNC)cc3n2)n1 [Example 31, 4-{2-[(3S)-3-ethylmorpholin-4-yl]-6-{2-[(methylamino)methyl]-1H-pyrrolo[3,2-b]pyridin-5-yl}pyridin-4-yl}-N,N-dimethyloxane-4-sulfonamide]",2.51 to 10
2,"CC[C@H]1COCCN1c1cc(C(C)(C)S(C)(=O)=O)cc(-c2ccc3[nH]c(CN)cc3n2)n1 [Example 21, 1-(5-{6-[(3S)-3-ethylmorpholin-4-yl]-4-(2-methanesulfonylpropan-2-yl)pyridin-2-yl}-1H-pyrrolo[3,2-b]pyridin-2-yl)methanamine]",3.16 to 316
3,"CC[C@H]1COCCN1c1cc(C(C)(C)S(N)(=O)=O)cc(-c2ccc3[nH]c(CNC)cc3n2)n1 [Example 28, 2-{2-[(3S)-3-ethylmorpholin-4-yl]-6-{2-[(methylamino)methyl]-1H-pyrrolo[3,2-b]pyridin-5-yl}pyridin-4-yl}propane-2-sulfonamide]",3.16 to 316
4,"CNCc1cc2nc(-c3cc(C(C)(C)S(C)(=O)=O)cc(N4[C@@H]5CC[C@H]4COC5)n3)ccc2[nH]1 [Example 3, 1-(5-(6-((1R,5S)-3-oxa-8-azabicyclo[3.2.1]octan-8-yl)-4-(2-(methylsulfonyl)propan-2-yl)pyridin-2-yl)-1H-pyrrolo[3,2-b]pyridin-2-yl)-N-methylmethanamine]",3.16 to 316
5,"CNCc1cc2nc(-c3cc(C(C)(C)S(C)(=O)=O)cc(N4C5CCCC4COC5)n3)ccc2[nH]1 [Example 5, 1-(5-(6-(3-oxa-9-azabicyclo[3.3.1]nonan-9-yl)-4-(2-(methylsulfonyl)propan-2-yl)pyridin-2-yl)-1H-pyrrolo[3,2-b]pyridin-2-yl)-N-methylmethanamine]",3.16 to 316
6,"CC[C@H]1COCCN1c1cc(CS(C)(=O)=O)cc(-c2ccc3[nH]c(CNC)cc3n2)n1 [Example 13, (S)-1-(5-(6-(3-ethylmorpholino)-4-((methylsulfonyl)methyl)pyridin-2-yl)-1H-pyrrolo[3,2-b]pyridin-2-yl)-N-methylmethanamine]",3.16 to 316
7,"CNCc1cc2nc(-c3cc(CS(C)(=O)=O)cc(N4CC5CCC(C4)O5)n3)ccc2[nH]1 [Example 25, ({5-[4-(methanesulfonylmethyl)-6-{8-oxa-3-azabicyclo[3.2.1]octan-3-yl}pyridin-2-yl]-1H-pyrrolo[3,2-b]pyridin-2-yl}methyl)(methyl)amine]",3.16 to 316
8,"CNCc1cc2nc(-c3cc(C(F)(F)S(C)(=O)=O)cc(N4CCOC[C@@H]4C)n3)ccc2[nH]1 [Example 12, (S)-1-(5-(4-(difluoro(methylsulfonyl)methyl)-6-(3-methylmorpholino)pyridin-2-yl)-1H-pyrrolo[3,2-b]pyridin-2-yl)-N-methylmethanamine]",3.16 to 316
9,"CC[C@H]1COCCN1c1cc(CS(C)(=O)=O)cc(-c2ccc3[nH]c(CO)cc3n2)n1 [Example 34, (5-{6-[(3S)-3-ethylmorpholin-4-yl]-4-(methanesulfonylmethyl)pyridin-2-yl}-1H-pyrrolo[3,2-b]pyridin-2-yl)methanol]",2.51 to 10
10,"CC[C@H]1COCCN1c1cc(C2(S(C)(=O)=O)CC2)cc(-c2ccc3[nH]c(CNC)cc3n2)n1 [Example 19, [(5-{6-[(3S)-3-ethylmorpholin-4-yl]-4-(1-methanesulfonylcyclopropyl)pyridin-2-yl}-1H-pyrrolo[3,2-b]pyridin-2-yl)methyl](methyl)amine]",2.51 to 10
11,"CCS(=O)(=O)C(C)(C)c1cc(-c2ccc3[nH]c(CNC)cc3n2)nc(N2CCOC[C@@H]2C)c1 [Example 7, (S)-1-(5-(4-(2-(ethylsulfonyl)propan-2-yl)-6-(3-methylmorpholino)pyridin-2-yl)-1H-pyrrolo[3,2-b]pyridin-2-yl)-N-methylmethanamine]",3.16 to 316
12,"CNCc1cc2nc(-c3cc(C4(S(C)(=O)=O)CC4)cc(N4CCOC[C@@H]4C)n3)ccc2[nH]1 [Example 20, ({5-[4-(1-methanesulfonylcyclopropyl)-6-[(3S)-3-methylmorpholin-4-yl]pyridin-2-yl]-1H-pyrrolo[3,2-b]pyridin-2-yl}methyl)(methyl)amine]",3.16 to 316
13,"CC[C@H]1COCCN1c1cc(CS(=O)(=O)N(C)C)cc(-c2ccc3[nH]c(CNC)cc3n2)n1 [Example 17, (S)-1-(2-(3-ethylmorpholino)-6-(2-((methylamino)methyl)-1H-pyrrolo[3,2-b]pyridin-5-yl)pyridin-4-yl)-N,N-dimethylmethanesulfonamide]",2.51 to 10
14,"CC[C@H]1COCCN1c1cc(C(C)(C)S(=O)(=O)C2CC2)cc(-c2ccc3[nH]c(CNC)cc3n2)n1 [Example 9, (S)-1-(5-(4-(2-(cyclopropylsulfonyl)propan-2-yl)-6-(3-ethylmorpholino)pyridin-2-yl)-1H-pyrrolo[3,2-b]pyridin-2-yl)-N-methylmethanamine]",3.16 to 316
15,"CNCc1cc2nc(-c3cc(CS(C)(=O)=O)cc(N4CCOC[C@@H]4C)n3)ccc2[nH]1 [Example 6, (S)—N-methyl-1-(5-(6-(3-methylmorpholino)-4-((methylsulfonyl)methyl)pyridin-2-yl)-1H-pyrrolo[3,2-b]pyridin-2-yl)methanamine]",3.16 to 316
16,"CC[C@H]1COCCN1c1cc(CS(=O)(=O)NC)cc(-c2ccc3[nH]c(CNC)cc3n2)n1 [Example 30, 1-{2-[(3S)-3-ethylmorpholin-4-yl]-6-{2-[(methylamino)methyl]-1H-pyrrolo[3,2-b]pyridin-5-yl}pyridin-4-yl}-N-methylmethanesulfonamide]",3.16 to 316
17,"CC[C@H]1COCCN1c1cc(CS(=O)(=O)N(C)C)cc(-c2ccc3[nH]c(CO)cc3n2)n1 [Example 35, 1-{2-[(3S)-3-ethylmorpholin-4-yl]-6-[2-(hydroxymethyl)-1H-pyrrolo[3,2-b]pyridin-5-yl]pyridin-4-yl}-N,N-dimethylmethanesulfonamide]",2.51 to 10
18,"CC[C@H]1COCCN1c1cc(C2(S(C)(=O)=O)CCOCC2)cc(-c2ccc3[nH]c(CO)cc3n2)n1 [Example 33, (5-{6-[(3S)-3-ethylmorpholin-4-yl]-4-(4-methanesulfonyloxan-4-yl)pyridin-2-yl}-1H-pyrrolo[3,2-b]pyridin-2-yl)methanol]",2.51 to 10
19,"CNCc1cc2nc(-c3cc(C(C)(C)S(C)(=O)=O)cc(N4CC5CCC(C4)O5)n3)ccc2[nH]1 [Example 4, 1-(5-(6-(8-oxa-3-azabicyclo[3.2.1]octan-3-yl)-4-(2-(methylsulfonyl)propan-2-yl)pyridin-2-yl)-1H-pyrrolo[3,2-b]pyridin-2-yl)-N-methylmethanamine]",3.16 to 316
20,"CNCc1cc2nc(-c3cc(C4(S(C)(=O)=O)CCOCC4)cc(N4C5CCC4COC5)n3)ccc2[nH]1 [Example 40, ({5-[4-(4-methanesulfonyloxan-4-yl)-6-{3-oxa-8-azabicyclo[3.2.1]octan-8-yl}pyridin-2-yl]-1H-pyrrolo[3,2-b]pyridin-2-yl}methyl)(methyl)amine]",3.16 to 316
21,"CC[C@H]1COCCN1c1cc(C2(S(=O)(=O)C3CC3)CC2)cc(-c2ccc3[nH]c(CNC)cc3n2)n1 [Example 11, (S)-1-(5-(4-(1-(cyclopropylsulfonyl)cyclopropyl)-6-(3-ethylmorpholino)pyridin-2-yl)-1H-pyrrolo[3,2-b]pyridin-2-yl)-N-methylmethanamine]",3.16 to 316
22,"CNCc1cc2nc(-c3cc(C(C)(C)S(C)(=O)=O)cc(N4CCOC[C@@H]4C)n3)ccc2[nH]1 [Example 2, (S)—N-methyl-1-(5-(6-(3-methylmorpholino)-4-(2-(methylsulfonyl)propan-2-yl)pyridin-2-yl)-1H-pyrrolo[3,2-b]pyridin-2-yl)methanamine]",3.16 to 316
